Counter-ions that a name gives are not always drawn.
Work on `NC(CS)CN1CCN(C(=O)c2cccc3ccccc23)Cc2ccccc21` (racemic) (as salt: hydrochloride) [Example 1, (+,−)-1-(2-Amino-3-mercaptopropyl)-2,3,4,5-tetrahydro-4-(naphthalenylcarbonyl)-1H-1,4-benzodiazepine, Monohydrochloride] yielded a melting point of 140 °C.
